According to PubChem BioAssay AID1259407 (Chemical Carcinogenesis Research Information System (CCRIS), 2018):
Activity calls are given as the source filed them. The rule behind the calls is not given here.

System: CCRIS mutagenicity, Ames/micronucleus/aberration tests
Assay: CCRIS mutagenicity studies
Conditions: Test System: AMES SALMONELLA TYPHIMURIUM

COc1ccc(C(Cl)=C(c2ccc(OC)cc2)c2ccc(OC)cc2)cc1
mutagenic call (Strain/Indicator: TA97, Metabolic Activation: HAMSTER, LIVER, S-9, AROCLOR 1254 (10 OR 30%), Method: PREINCUBATION): inactive; negative
mutagenic call (Strain/Indicator: TA97, Metabolic Activation: NONE, Method: PREINCUBATION): inactive; negative
mutagenic call (Strain/Indicator: TA97, Metabolic Activation: RAT, LIVER, S-9, AROCLOR 1254 (10 OR 30%), Method: PREINCUBATION): inactive; negative
mutagenic call (Strain/Indicator: TA98, Metabolic Activation: HAMSTER, LIVER, S-9, AROCLOR 1254 (10 OR 30%), Method: PREINCUBATION): inactive; negative
mutagenic call (Strain/Indicator: TA98, Metabolic Activation: NONE, Method: PREINCUBATION): inactive; negative
mutagenic call (Strain/Indicator: TA98, Metabolic Activation: RAT, LIVER, S-9, AROCLOR 1254 (10 OR 30%), Method: PREINCUBATION): inactive; negative
mutagenic call (Strain/Indicator: TA100, Metabolic Activation: HAMSTER, LIVER, S-9, AROCLOR 1254 (10 OR 30%), Method: PREINCUBATION): inactive; negative
mutagenic call (Strain/Indicator: TA100, Metabolic Activation: NONE, Method: PREINCUBATION): inactive; negative
mutagenic call (Strain/Indicator: TA100, Metabolic Activation: RAT, LIVER, S-9, AROCLOR 1254 (10 OR 30%), Method: PREINCUBATION): inactive; negative
mutagenic call (Strain/Indicator: TA1535, Metabolic Activation: HAMSTER, LIVER, S-9, AROCLOR 1254 (10 OR 30%), Method: PREINCUBATION): inactive; negative
mutagenic call (Strain/Indicator: TA1535, Metabolic Activation: NONE, Method: PREINCUBATION): inactive; negative
mutagenic call (Strain/Indicator: TA1535, Metabolic Activation: RAT, LIVER, S-9, AROCLOR 1254 (10 OR 30%), Method: PREINCUBATION): inactive; negative
mutagenic call (Strain/Indicator: TA1537, Metabolic Activation: HAMSTER, LIVER, S-9, AROCLOR 1254 (10%), Method: PREINCUBATION): inactive; negative
mutagenic call (Strain/Indicator: TA1537, Metabolic Activation: HAMSTER, LIVER, S-9, AROCLOR 1254 (30%), Method: PREINCUBATION): inactive; negative
mutagenic call (Strain/Indicator: TA1537, Metabolic Activation: NONE, Method: PREINCUBATION): inactive; negative
mutagenic call (Strain/Indicator: TA1537, Metabolic Activation: RAT, LIVER, S-9, AROCLOR 1254 (10 OR 30%), Method: PREINCUBATION): inactive; negative

NC(=O)c1cccnc1
mutagenic call (Strain/Indicator: TA97A, Metabolic Activation: NONE, Method: PREINCUBATION): inactive; negative
mutagenic call (Strain/Indicator: TA97A, Metabolic Activation: RAT, LIVER, S-9, AROCLOR 1254, Method: PREINCUBATION): inactive; negative
mutagenic call (Strain/Indicator: TA102, Metabolic Activation: NONE, Method: PREINCUBATION): inactive; negative
mutagenic call (Strain/Indicator: TA102, Metabolic Activation: RAT, LIVER, S-9, AROCLOR 1254, Method: PREINCUBATION): inactive; negative

[N-]=[N+]=NCC[C@H](N)C(=O)O
mutagenic call (Strain/Indicator: TA1530, Metabolic Activation: NONE, Method: STANDARD PLATE): active; positive
